Data reported in patent US20230338250A1, “Compositions Comprising One or More (Bio)-Alkanediols with Active Ingredients” (Symrise AG, priority 2020, published 2023).

Key:
[1] = Example 2 solubility of alkanediols in water (maximum water solubility, visual observation); type: physicochemical; settings: assessed at ambient temperature after 24 h storage at 5° C.
From the text: The water solubility of a substance is the saturation mass concentration of the substance in water at a given temperature. The determination of the solubility in water relates to essentially pure substances which are stable in water and not volatile.
For the determination of the maximum water solubility of an alkanediol, water and different concentrations of the respective alkanediol were blended by stirring. […] The determination of whether the alkanediol has dissolved in water is based entirely on visual observation.

[2] = Example 1.2 solubility improvement for Hydrocortisone with 1,2-alkanediols: visual appearance; type: physicochemical; settings: 0.2 % Hydrocortisone; 1.0 % 1,2-alkanediol; after 3 days 23° C.
Protocol: Production method: A premix B was prepared by mixing solvent, solubilizer and diol. Hydrocortisone was added. The mixture was heated to 70° C. to solve the active component while stirring with a magnetic stirrer. The mixture was stirred for further 5 minutes at 70° C. Water was added and the mixture was cooled while stirring (10 min).
The visual appearance of the sample solutions was evaluated according to the following scale:
The images of the sample solutions A (containing 1,2-pentanediol), B (containing 1,2-hexanediol), C (containing 1,2-heptanediol) and D (containing 1,2-octanediol) are shown in FIG. 3.

Maximum solubility in water (% by weight) [1] [% by weight] | crystallization/sedimentation, transparency, turbidity compared between samples [2] | SMILES
2.5 | better solubility improving properties | CCCCCC(O)CO (stereo not drawn) [1,2-heptanediol]
0.1 |  | CCCCCCCC(O)CO (stereo not drawn) [1,2-nonanediol]
3.6 |  | CCCCC(O)C(C)O (stereo not drawn) [2,3-heptanediol]
0.3 |  | CCCCCCC(O)C(C)O (stereo not drawn) [2,3-nonanediol]
1.5 |  | CCCCCC(O)C(C)O (stereo not drawn) [2,3-octanediol]
50 |  | CCCC(O)CO (stereo not drawn) [Hydrolite® 5 green, 1,2-pentanediol]
50 |  | CCCCC(O)CO (stereo not drawn) [Hydrolite® 6, 1,2-hexanediol]
0.5 |  | CCCCCCC(O)CO (stereo not drawn) [Hydrolite® 8, 1,2-octanediol]
